Experimental findings from US8592403B2, “Diazepine and diazocane compounds as MC4 agonists” (Pfizer Limited, priority 2008, dated 2013) are described below.

Molecules are shown by their SMILES.

In series [1] the target is T1, CYP3A4 (Homo sapiens, UniProt P08684).
T1 construct: utilizes human liver microsomes together with isoform-specific clinical drug probes; from tissue; host or cells: human liver microsomes
Briefly: High density DDI 3 μM cocktail screen in human liver microsomes, midazolam probe. As to conditions: human, liver microsomes, probe midazolam, read-out: % inhibition 3A4 @ 3 μM. It counts as in vitro ADME. The gist of the method: (§1)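 Pooled human liver microsomes incubated with isoform-specific clinical probe substrates as a cocktail (midazolam for CYP3A4), with or without test compound at 3 μM. Metabolite formation followed over time by LC-MS/MS. Inhibition expressed as a single-point percentage.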

Series [2] deals with T2, human MC3 receptors (Homo sapiens, UniProt P41968).
T2 construct: stably transfected with full length cDNA encoding human MC1 or MC3 receptors; expressed in transfected cells
Briefly: In vitro agonist potency (EC50) at melanocortin receptor type 3, cAMP in recombinant cell line. It counts as cell-based. As to the method: Measurement of In Vitro Agonist Potency (EC50) of Compounds Against Melanocortin Receptors Type 1 and 3 (MC1 and MC3).
Activation of melanocortin (MC) receptors by agonists results in activation of intracellular adenylate cyclase enzymes that synthesise the second messenger signalling molecule, adenosine 3′,5′-cyclic monophosphate (cAMP). Changes in cAMP levels following treatment of recombinant MC1 and MC3 cell lines with test compound were measured and an MC1 and MC3 potency estimate (EC50) calculated as follows: […]
Human embryonic kidney (HEK) or Chinese hamster ovary cell lines stably transfected with full length cDNA encoding human MC1 or MC3 receptors, respectively, were established using standard molecular biology methods. Test compounds were dissolved in dimethyl sulfoxide (DMSO) at 4 mM. 11 point half log unit increment dilution series of test compound, typically starting at 50 uM were prepared in a buffer comprised of phosphate buffered saline (PBS), 2.5% DMSO and 0.05% pluronic F-127 surfactant. Freshly cultured cells at 80-90% confluence were harvested and re-suspended in Dulbecco's Modified Eagle's Medium (DMEM). Cells (10,000 for MC3, 20,000 for MC1) were added to the test compound dilution series in a 384 well assay plate and incubated for 1 hour at 37° C. The relative cAMP concentration in each well was then measured using a β-galactosidase enzyme fragment complementation method purchased in kit form as the Discoverx cAMP II kit from GE Healthcare/Amersham Biosciences UK. In the case of MC1,3-Isobutyl-1-methylxanthine (IBMX) at a concentration of 750 μM was included in DMEM as the cells were re-suspended for assay. […] Sigmoidal curves were fitted to plots of log10 inhibitor concentration vs percent effect using a custom made software application called SIGHTS and EC50 estimates determined by the software as the concentration of test compound giving an effect half way between the bottom and top asymptotes of the sigmoidal dose response curve. Each experiment included an EC50 determination for alpha melanocyte stimulating hormone, which was used as a standard to track assay consistency and allow fair comparison between EC50 estimates obtained in different experiments.

Series [3] deals with MC4 receptor (Homo sapiens, UniProt P32245). Kind of series: MC4 EC50 functional potency (protocol E of US2005/0176772 / WO 2005/077935). It counts as cell-based. As to the method: The compounds of formula (I) of the present invention have utility as MCR4 agonists in the treatment of various disease states.
MC5 and MC4 EC50 activity was determined as described by assay protocols D and E, respectively, in US2005/0176772 (pages 28-30).

Series [4] in a line: In vitro metabolism rate determination, human liver microsome (HLM) assay. As to conditions: for microsomal CLint at 1 μM: human, liver microsomes, read-out: HLM: Clint, app; for HLM: Clint, app: human liver microsomes, unit assumed. It counts as in vitro ADME. An outline of the steps: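 Human liver microsomes at 0.5 nmol cytochrome P450/ml with 1 μM substrate, pre-warmed 5 min at 37° C, reaction started with NADP; samples taken 0–60 min and terminated. Substrate loss measured; first-order rate constant from log-linear regression converted to half-life or Clint (μl/min/mg protein).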
(In general: Liver microsomes are vesicles of endoplasmic reticulum, rich in cytochrome P450 enzymes.)

Series [5] deals with T3, MC4 receptor (MC4R) (Homo sapiens, UniProt P32245).
T3 construct: expressed in transfected cells; host or cells: CHO-CRE MC4R cells (membranes)
Briefly: Nle4, D-Phe7-α-MSH inhibition at the MC4 receptor (competition binding, SPA, CHO-CRE MC4R membranes). The gist of the method:
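Competition binding by SPA used CHO-CRE MC4R membranes on WGA beads (0.15 ug membrane/well) with 0.06 nM [125I] Nle4, D-Phe7-α-MSH and 11 half-log competitor concentrations in duplicate. Buffer was 25 mM HEPES pH 7 with MgCl2, CaCl2, Pluronic F68 and protease inhibitors; incubation was 12 hours at room temperature. Non-specific binding was set with 100 nM SHU9119, and Ki was calculated.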

In series [6] the target is T4, cytochrome P450 3A4 (Homo sapiens, UniProt P08684).
T4 construct: utilizes human liver microsomes together with isoform-specific clinical drug probes; from tissue; host or cells: human liver microsomes
Kind of series: High density DDI 3 μM cocktail screen in human liver microsomes, midazolam probe. It counts as in vitro ADME. As to conditions: 3 µM. The gist of the method: as §1

Series [7] concerns the target T5, MC3 receptor (MC3R) (Homo sapiens, UniProt P41968).
T5 construct: expressed in transfected cells; host or cells: CHO-CRE MC3R cells (membranes)
Briefly: Nle4, D-Phe7-α-MSH inhibition at the MC3 receptor (competition binding, SPA, CHO-CRE MC3R membranes). An outline of the steps:
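Competition binding by SPA used CHO-CRE MC3R membranes on WGA beads with 0.06 nM [125I]Nle4,D-Phe7-α-MSH and 11 half-log competitor concentrations. Buffer was 25 mM HEPES, MgCl2, CaCl2, 1% Pluronic F68, pH7, incubated 12 h at room temperature. Non-specific binding was defined with 100 nM SHU9119, and Ki values were derived.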

T1 sequence (P08684 whole entry, canonical isoform): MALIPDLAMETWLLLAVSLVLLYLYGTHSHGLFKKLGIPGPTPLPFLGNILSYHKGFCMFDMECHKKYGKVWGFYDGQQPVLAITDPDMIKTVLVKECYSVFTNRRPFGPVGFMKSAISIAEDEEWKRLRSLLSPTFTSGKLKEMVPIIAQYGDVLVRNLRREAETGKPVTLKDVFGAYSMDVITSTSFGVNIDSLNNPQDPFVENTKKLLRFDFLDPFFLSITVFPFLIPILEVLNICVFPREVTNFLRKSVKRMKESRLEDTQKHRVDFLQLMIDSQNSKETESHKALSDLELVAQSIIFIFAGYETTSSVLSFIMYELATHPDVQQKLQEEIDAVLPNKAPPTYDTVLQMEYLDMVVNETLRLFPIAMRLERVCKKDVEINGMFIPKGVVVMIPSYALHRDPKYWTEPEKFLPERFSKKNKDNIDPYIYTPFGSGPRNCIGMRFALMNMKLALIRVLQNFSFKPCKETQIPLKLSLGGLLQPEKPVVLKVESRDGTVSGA
Chain of MC4 receptor (P32245 whole entry): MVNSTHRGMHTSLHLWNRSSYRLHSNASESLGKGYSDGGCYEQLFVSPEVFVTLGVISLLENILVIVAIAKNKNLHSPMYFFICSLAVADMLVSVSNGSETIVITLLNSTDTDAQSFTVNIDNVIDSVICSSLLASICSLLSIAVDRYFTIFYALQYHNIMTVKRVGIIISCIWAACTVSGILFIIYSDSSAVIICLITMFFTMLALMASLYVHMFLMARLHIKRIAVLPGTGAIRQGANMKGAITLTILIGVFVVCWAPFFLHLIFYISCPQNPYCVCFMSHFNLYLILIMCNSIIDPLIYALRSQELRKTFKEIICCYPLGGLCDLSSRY
T3 sequence (P32245 whole entry): as above
T5 sequence (P41968 whole entry): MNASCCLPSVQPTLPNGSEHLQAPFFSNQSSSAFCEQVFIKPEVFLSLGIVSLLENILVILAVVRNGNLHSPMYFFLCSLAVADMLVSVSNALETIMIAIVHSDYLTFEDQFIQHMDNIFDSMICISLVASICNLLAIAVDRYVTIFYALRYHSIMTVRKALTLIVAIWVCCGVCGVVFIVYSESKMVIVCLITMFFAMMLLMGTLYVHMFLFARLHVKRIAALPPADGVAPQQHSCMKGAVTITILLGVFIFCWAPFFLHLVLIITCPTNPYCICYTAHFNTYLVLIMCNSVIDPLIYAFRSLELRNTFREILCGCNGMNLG
T2 sequence (P41968 whole entry): as above
T4 sequence (P08684 whole entry, canonical isoform): as the sequence (P08684 whole entry, canonical isoform) above

The term inhibition denotes how much of the control response was suppressed. The term EC50 denotes the midpoint of the concentration-response curve. For the compound `CS(=O)(=O)N1CCN(C(=O)[C@@H]2CN(c3cccnn3)C[C@H]2c2ccc(F)cc2F)CCCC1c1ccc(Cl)cc1` (mixture of isomers) [Example 41], the inhibition at 3 µM in series [1] is 88%. Besides, the EC50 in series [2] was 6670 nM; in series [3] it was 25.1 nM. Also, in series [4], the microsomal CLint at 1 μM was 41 µL/min/mg.

The term Ki denotes the equilibrium dissociation constant of an inhibitor or competing ligand from its target. On to `COC(=O)N1CCN(C(=O)[C@@H]2CN(c3cccnn3)C[C@H]2c2ccc(F)cc2F)CCCC1c1ccccc1` (mixture of isomers) [Example 100], for which the inhibition at 3 µM in series [1] was 65.5%. Moreover, the EC50 is 436 nM in series [2] and 7.16 nM in series [3]. This compound gave a Ki in series [5] of 189 nM. For the same compound, the microsomal CLint at 1 μM in series [4] worked out at 83 µL/min/mg.

For the compound `CS(=O)(=O)N1CCN(C(=O)[C@@H]2CN(c3ccc(C#N)cn3)C[C@H]2c2ccc(F)cc2F)CCCC1c1ccccc1` (single isomer, unassigned) [Example 39], the inhibition at 3 µM in series [1] amounted to 87.5%. In addition, the EC50 in series [2] was 942 nM; in series [3], 38 nM. Further, the microsomal CLint at 1 μM in series [4] is 177 µL/min/mg.

As to `CS(=O)(=O)N1CCN(C(=O)[C@@H]2CN(c3ccc(C#N)cn3)C[C@H]2c2ccc(F)cc2F)CCCC1c1ccccc1` (single isomer, unassigned) [Example 40], in series [6], the “% inhibition 3A4 @ 3 μM” value is on record as 79.5%. Moreover, the results for the EC50 in series [2] and in series [3] were 607 nM and 29 nM, respectively. The same compound registered an HLM: Clint, app in series [4] of 156 µL/min/mg.

Regarding `COc1ccc([C@@H]2CN(c3ccc(=O)[nH]n3)C[C@H]2C(=O)N2CCCC(c3ccc(Cl)cc3)N(S(C)(=O)=O)CC2)c(F)c1` (single isomer, unassigned) [Example 114], in series [6], the “% inhibition 3A4 @ 3 μM” value was found to be 27.5%. The compound also yielded an EC50 in series [3] of 73.4 nM. In addition, the values for the inhibitory constant (Ki) in series [5] and in series [7] were 20.8 nM and 1150 nM, respectively. Further, the HLM: Clint, app in series [4] was 16.4 µL/min/mg.

Consider `COc1ccc([C@@H]2CN(c3ccc(=O)n(C)n3)C[C@H]2C(=O)N2CCC[C@@H](c3ccc(Cl)cc3)N(C(=O)C3CC3)CC2)c(F)c1` [Example 29], for which the inhibition at 3 µM in series [1] was 60.8%. The EC50 in series [2] was 506 nM; in series [3], 2.23 nM. Further, in series [4], the microsomal CLint at 1 μM amounted to 21.4 µL/min/mg.

As for `COc1ccc([C@@H]2CN(c3ccc(=O)n(C)n3)C[C@H]2C(=O)N2CCC[C@@H](c3ccc(Cl)cc3)N(C(=O)C(C)C)CC2)c(F)c1` [Example 31], the inhibition at 3 µM in series [1] is 40.8%. For the same compound, the EC50 is 412 nM in series [2] and 1.23 nM in series [3]. In series [5], this compound showed an inhibition constant Ki of 28.2 nM. Moreover, the microsomal CLint at 1 μM in series [4] was determined as 21.8 µL/min/mg.

`COC(=O)N1CCN(C(=O)[C@@H]2CN(c3ccc(C#N)nn3)C[C@H]2c2ccc(OC)cc2F)CCC[C@@H]1c1ccc(Cl)cc1` [Example 88]: the EC50 in series [2] worked out at 148 nM; in series [3] it was 5.38 nM. Also, the results for the Ki in series [5] and in series [7] were 24 nM and 153 nM, respectively.

`COC(=O)N1CCN(C(=O)[C@@H]2CN(c3ccc(C#N)nn3)CC2c2ccc(OC)cc2F)CCC[C@H]1c1ccc(Cl)cc1` (stereo partly drawn) [Example 89]: the figures for the 50% effective concentration (EC50) in series [2] and in series [3] were 764 nM and 14.3 nM, respectively. Moreover, the results for the Ki in series [5] and in series [7] were 31.3 nM and 402 nM, respectively.
